Measured values taken from publication PMC9499365, “Stereoselective Synthesis and Application of Gibberellic Acid-Derived Aminodiols” (International Journal of Molecular Sciences, 2022).

Columns and labels:
[1] = DPPH free radical scavenging assay; details: 0.1 mM DPPH, 30 min, 25 °C
Procedure: As a consequence, in vitro antioxidant activities of selected N-aliphatic- and N-aryl-substituted aminodiols were determined by 1,1-diphenyl-2-picrylhydrazyl (DPPH) assay.
The antioxidant effects of the aminodiol derivatives were tested on 1,1-diphenyl-2-picrylhydrazyl (DPPH) radicals according to Brand-Williams (1995) [55] and Sánchez-Moreno (2002) [56], with some modifications. […] After a 30 min incubation period at room temperature (25 °C) the absorbances were measured at 517 nm by a microplate reader (SPECTROStar Nano, BMG Labtech, Offenburg, Germany). Trolox (3,4-Dihydro-6-hydroxy-2,5,7,8-tetramethyl-2H-1-benzopyran-2-carboxylic acid) was used as a positive control. All measurements were performed in duplicate with 5 parallels.

[2] = system: HeLa cells (cervical cancer); assay: MTT antiproliferative assay, HeLa; type: cell-based, human; details: 72 h; for inhibition at 10 µM / inhibition at 30 µM: Homo sapiens, read-out: Growth inhibition (%) ± SEM
Procedure: (§1) The in vitro antiproliferative activities of the synthesized aminodiols 4–38 against a panel of different human cancer cell lines of gynecological origin, including cervical (SiHA and HeLa), breast (MCF7 and MDA-MB-231), and ovary (A2780) cancers were assayed by the MTT method. […] Cisplatin, a clinically applied anticancer agent, was used as a reference compound and the results are summarized in Figure 3 and Table S1 in Supporting Information. […] On the other hand, none of the prepared azole derivatives exerted relevant activity.
(§2) The growth-inhibitory effects of the gibberellic acid-based aminodiol derivatives were determined by a standard MTT (3-(4,5-dimethylthiazol-2-yl)-2,5-diphenyltetrazolium bromide) assay on a panel containing five cell lines, including Hela and Siha (cervical cancers); MDA-MB-231 and MCF-7 (breast cancers); and A2780 ovarian cancer cells. The most promising agents were additionally tested against NIH/3T3 mouse embryo fibroblast cells. All cell lines were purchased from the European Collection of Cell Cultures (Salisbury, UK) except SiHa, which was obtained from the American Tissue Culture Collection (Manassas, VA, USA). The cells were maintained in minimal essential medium supplemented with 10% fetal bovine serum, 1% non-essential amino acids, and 1% penicillin-streptomycin at 37 °C in a humidified atmosphere containing 5% CO2. All media and supplements were obtained from Lonza Group Ltd., (Basel, Switzerland). Cancer cells were seeded into 96-well plates (5000 cells/well), after an overnight incubation the test compound was added in 2 different concentrations (10 µM and 30 µM) and incubated for another 72 h under cell-culturing conditions. Then, 20 μL of 5 mg/mL MTT solution was added to each well and incubated for a further 4 h. The medium was removed, and the precipitated formazan crystals were dissolved in DMSO during 60 min of shaking at 37 °C. As the final step, the absorbance was measured at 545 nm by using a microplate reader (SPECTROStar Nano, BMG Labtech, Offenburg, Germany). Untreated cells were included as controls. […] These agents were additionally tested against NIH/3T3 fibroblasts to obtain results about their cancer selectivity. Two independent experiments were performed with five wells for each condition. Cisplatin (Ebewe GmbH, Unterach, Austria), a clinically used anticancer agent, was used as a positive control. Calculations were performed utilizing the GraphPad Prism 5.01 software (GraphPad Software Inc., San Diego, CA, USA).

[3] = system: SiHa cells (cervical cancer); assay: MTT antiproliferative assay, SiHa; type: cell-based, human; details: 72 h; for inhibition at 10 µM / inhibition at 30 µM: Homo sapiens, read-out: Growth inhibition (%) ± SEM
Procedure: as §1, §2

[4] = system: MDA-MB-231 cells (breast cancer); assay: MTT antiproliferative assay, MDA-MB-231; type: cell-based, human; details: for inhibition at 10 µM / inhibition at 30 µM: Homo sapiens, read-out: Growth inhibition (%) ± SEM; for inhibition at 10 µM / inhibition at 30 µM / Growth inhibition (%) ± SEM: 72 h
Procedure: as §1, §2

[5] = system: A2780 ovarian cancer cells; assay: MTT antiproliferative assay, A2780; type: cell-based, human; details: for inhibition at 10 µM / inhibition at 30 µM: Homo sapiens, read-out: Growth inhibition (%) ± SEM; for inhibition at 10 µM / inhibition at 30 µM / Growth inhibition (%) ± SEM: 72 h
Procedure: as §1, §2

[6] = system: NIH/3T3 mouse embryo fibroblast cells; assay: MTT assay on non-cancerous fibroblasts (cancer selectivity); type: cell-based; details: for Growth inhibition (%) ± SEM: 72 h
Procedure: as §1, §2

| SMILES | inhibition at 10 µM ([2]; 10 μM) | inhibition at 30 µM ([2]; 30 μM) | inhibition at 10 µM ([3]; 10 μM) | inhibition at 30 µM ([3]; 30 μM) | inhibition at 10 µM ([4]; MDA-MB-231, 10 μM) | inhibition at 30 µM ([4]; MDA-MB-231, 30 μM) | inhibition at 10 µM ([5]; A2780, 10 μM) | inhibition at 30 µM ([5]; A2780, 30 μM) | melting point | further results |
| --- | --- | --- | --- | --- | --- | --- | --- | --- | --- | --- |
| Cc1c(C)c2c(c(C)c1O)CCC(C)(C(=O)O)O2 (stereo not shown) [Trolox, 3,4-Dihydro-6-hydroxy-2,5,7,8-tetramethyl-2H-1-benzopyran-2-carboxylic acid, reference compound] |  |  |  |  |  |  |  |  |  | IC50 [1]: 20.2 µM |
| CCOC(=O)[C@H]1c2c(C)cccc2[C@H]2CC[C@]3(O)C[C@@]21C[C@]3(O)CNCc1cccc2ccccc12 [Compound 15, Ethyl (4bS,7S,8S,9aR,10R)-7,8-dihydroxy-1-methyl-8-(((naphthalen-1-ylmethyl)amino)methyl)-4b,6,7,8,9,10-hexahydro-5H-7,9a-methanobenzo[a]azulene-10-carboxylate] | 28.2 ± 0.88% | 96.7 ± 1.54% | 28.61 ± 0.15% | 97.95 ± 0.63% | < 20% | 95.96 ± 0.69% | 21.9 ± 1.5% | 95.48 ± 0.65% | 71 to 74 °C |  |
| CCOC(=O)[C@H]1c2c(C)cccc2[C@H]2CC[C@]3(O)C[C@@]21C[C@]3(O)CN[C@H](CC)c1ccccc1 [Compound 7, Ethyl (4bS,7S,8S,9aR,10R)-7,8-dihydroxy-1-methyl-8-((((R)-1-phenylpropyl)amino)methyl)-4b,6,7,8,9,10-hexahydro-5H-7,9a-methanobenzo[a]azulene-10-carboxylate] | < 20% | 45 ± 0.97% | 28.9 ± 1.16% | 94.3 ± 1.48% | < 20% | 70.38 ± 0.07% | < 20% | 65 ± 2.44% | 55 to 57 °C |  |
| CCOC(=O)[C@H]1c2c(C)cccc2[C@H]2CC[C@]3(O)C[C@@]21C[C@]3(O)Cn1ccnc1 [Compound 26, Ethyl (4bS,7S,8S,9aR,10R)-8-((1H-imidazol-1-yl)methyl)-7,8-dihydroxy-1-methyl-4b,6,7,8,9,10-hexahydro-5H-7,9a-methanobenzo[a]azulene-10-carboxylate] | < 20% | < 20% | < 20% | 25.9 ± 2.53% | < 20% | < 20% | < 20% | < 20% | 101 to 103 °C |  |
| CCOC(=O)[C@H]1c2c(C)cccc2[C@H]2CC[C@]3(O)C[C@@]21CC31CN(Cc2ccccc2)CO1 (stereo partly shown) [Compound 24, Ethyl (4b’S,7’S,9a’R,10’R)-3-benzyl-7’-hydroxy-1’-methyl-4b’,6’,7’,10’-tetrahydro-5’H,9’H-spiro[oxazolidine-5,8’-[7,9a]methanobenzo[a]azulene]-10’-carboxylate] | < 20% | 53.9 ± 2.21% | < 20% | 31.9 ± 1.28% | < 20% | 42.4 ± 1.46% | < 20% | 34.1 ± 1.77% | 125 to 126 °C |  |
| CCOC(=O)[C@@H]1c2c(C)cccc2C2CC[C@]3(O)C[C@@]21C[C@]3(O)CN[C@@H](C)c1ccc2ccccc2c1 (stereo partly drawn) [Compound 35, Ethyl (7S,8S,9aR,10S)-7,8-dihydroxy-1-methyl-8-((((S)-1-(naphthalen-2-yl)ethyl)amino)methyl)-4b,6,7,8,9,10-hexahydro-5H-7,9a-methanobenzo[a]azulene-10-carboxylate] | 40.1 ± 1.21% | 95.9 ± 2.21% | 44.6 ± 0.74% | 98.41 ± 0.74% | 29.4 ± 1.66% | 96.81 ± 0.82% | 42.7 ± 2.63% | 95.4 ± 0.48% | 56 to 59 °C |  |
| CCOC(=O)[C@H]1c2c(C)cccc2[C@H]2CC[C@]3(O)C[C@@]21C[C@]3(O)CNCc1ccccc1 [Compound 4, Ethyl (4bS,7S,8S,9aR,10R)-8-((benzylamino)methyl)-7,8-dihydroxy-1-methyl-4b,6,7,8,9,10-hexahydro-5H-7,9a-methanobenzo[a]azulene-10-carboxylate] | 26.9 ± 1.55% | 25.9 ± 3.2% | 23.3 ± 0.63% | 57 ± 1.16% | < 20% | 31.6 ± 1.49% | < 20% | 49.9 ± 1.76% | 97 to 99 °C |  |
| CCOC(=O)[C@H]1c2c(C)cccc2[C@H]2CC[C@]3(O)C[C@@]21C[C@]3(O)CNCc1ccc(OC)cc1 [Compound 11, Ethyl (4bS,7S,8S,9aR,10R)-7,8-dihydroxy-8-(((4-methoxybenzyl)amino)methyl)-1-methyl-4b,6,7,8,9,10-hexahydro-5H-7,9a-methanobenzo[a]azulene-10-carboxylate] | < 20% | 60.8 ± 2.44% | 30.7 ± 0.82% | 53.7 ± 0.76% | < 20% | 78.7 ± 1.47% | 31.7 ± 2.82% | 53.4 ± 1.68% | 224 to 225 °C |  |
| CCOC(=O)[C@H]1c2c(C)cccc2[C@H]2CC[C@]3(O)C[C@@]21C[C@]3(O)CN[C@H](C)c1ccccc1 [Compound 6, Ethyl (4bS,7S,8S,9aR,10R)-7,8-dihydroxy-1-methyl-8-((((R)-1-phenylethyl)amino)methyl)-4b,6,7,8,9,10-hexahydro-5H-7,9a-methanobenzo[a]azulene-10-carboxylate] | 21.4 ± 1.7% | 63.1 ± 1.81% | < 20% | 65.9 ± 2.48% | < 20% | 85.1 ± 1.38% | 25.3 ± 0.27% | 61.9 ± 1.25% | 104 to 105 °C |  |
| CCOC(=O)[C@H]1c2c(C)cccc2[C@H]2CC[C@]3(O)C[C@@]21C[C@]3(O)Cn1cnc2ccccc21 [Compound 27, Ethyl (4bS,7S,8S,9aR,10R)-8-((1H-benzo[d]imidazol-1-yl)methyl)-7,8-dihydroxy-1-methyl-4b,6,7,8,9,10-hexahydro-5H-7,9a-methanobenzo[a]azulene-10-carboxylate] | < 20% | 45.5 ± 1.87% | 26.2 ± 0.46% | 44.4 ± 1.84% | < 20% | < 20% | < 20% | 28.9 ± 1.27% | 221 to 222 °C |  |
| N.N.[Cl][Pt][Cl] [Cisplatin, reference compound] |  |  |  |  |  |  |  |  |  | Growth inhibition (%) ± SEM ([2]; 10 μM): 42.61 ± 2.33%; Growth inhibition (%) ± SEM ([2]; 30 μM): 99.93 ± 0.26%; IC50 [2]: 12.4 µM; Growth inhibition (%) ± SEM ([3]; 10 μM): 88.64 ± 0.50%; Growth inhibition (%) ± SEM ([3]; 30 μM): 90.18 ± 1.78%; IC50 [3]: 7.84 µM; Growth inhibition (%) ± SEM ([4]; MDA-MB-231, 10 μM): 67.51 ± 1.01%; Growth inhibition (%) ± SEM ([4]; MDA-MB-231, 30 μM): 87.75 ± 1.10%; IC50 ([4]; MDA-MB-231, 72 h): 3.74 µM; Growth inhibition (%) ± SEM ([5]; A2780, 10 μM): 83.57 ± 1.21%; Growth inhibition (%) ± SEM ([5]; A2780, 30 μM): 95.02 ± 0.28%; IC50 ([5]; A2780, 72 h): 1.3 µM; Growth inhibition (%) ± SEM ([6]; NIH/3T3, 10 μM): 73.88 ± 1.63%; Growth inhibition (%) ± SEM ([6]; NIH/3T3, 30 μM): 97.10 ± 0.15%; IC50 ([6]; NIH/3T3, 72 h): 5.49 µM |
| CCOC(=O)[C@H]1c2c(C)cccc2[C@H]2CC[C@]3(O)C[C@@]21C[C@]3(O)CNCc1cn(Cc2ccccc2)nn1 [Compound 31, Ethyl (4bS,7S,8S,9aR,10R)-8-((((1-benzyl-1H-1,2,3-triazol-4-yl)methyl)amino)methyl)-7,8-dihydroxy-1-methyl-4b,6,7,8,9,10-hexahydro-5H-7,9a-methanobenzo[a]azulene-10-carboxylate] | < 20% | 40.2 ± 5.59% | < 20% | 42.9 ± 0.84% | < 20% | 50.8 ± 3.01% | < 20% | 41.4 ± 1.13% | 122 to 123 °C |  |
